Measurements: patent US20260102377A1, “COMPOSITIONS AND METHODS FOR TREATING MYASTHENIA GRAVIS” (priority 2022, published 2026)
Values joined by “and” are separate entries in the source; they are usually repeats but may differ in a detail not shown here. Equal entries are not always repeated. “Also recorded” adds a separate entry of the source.

Experiments:
CIC-1 = molecular target: T1, CIC-1 (Rattus norvegicus, UniProt P35524); experiment: Resting membrane conductance (Gm) in muscle fibres of isolated nerve-muscle preparations; assay type: cell-based
T1 construct: from tissue; host or cells: soleus or diaphragm muscle of healthy and EAMG Lewis rats
T1 sequence (P35524 1-994): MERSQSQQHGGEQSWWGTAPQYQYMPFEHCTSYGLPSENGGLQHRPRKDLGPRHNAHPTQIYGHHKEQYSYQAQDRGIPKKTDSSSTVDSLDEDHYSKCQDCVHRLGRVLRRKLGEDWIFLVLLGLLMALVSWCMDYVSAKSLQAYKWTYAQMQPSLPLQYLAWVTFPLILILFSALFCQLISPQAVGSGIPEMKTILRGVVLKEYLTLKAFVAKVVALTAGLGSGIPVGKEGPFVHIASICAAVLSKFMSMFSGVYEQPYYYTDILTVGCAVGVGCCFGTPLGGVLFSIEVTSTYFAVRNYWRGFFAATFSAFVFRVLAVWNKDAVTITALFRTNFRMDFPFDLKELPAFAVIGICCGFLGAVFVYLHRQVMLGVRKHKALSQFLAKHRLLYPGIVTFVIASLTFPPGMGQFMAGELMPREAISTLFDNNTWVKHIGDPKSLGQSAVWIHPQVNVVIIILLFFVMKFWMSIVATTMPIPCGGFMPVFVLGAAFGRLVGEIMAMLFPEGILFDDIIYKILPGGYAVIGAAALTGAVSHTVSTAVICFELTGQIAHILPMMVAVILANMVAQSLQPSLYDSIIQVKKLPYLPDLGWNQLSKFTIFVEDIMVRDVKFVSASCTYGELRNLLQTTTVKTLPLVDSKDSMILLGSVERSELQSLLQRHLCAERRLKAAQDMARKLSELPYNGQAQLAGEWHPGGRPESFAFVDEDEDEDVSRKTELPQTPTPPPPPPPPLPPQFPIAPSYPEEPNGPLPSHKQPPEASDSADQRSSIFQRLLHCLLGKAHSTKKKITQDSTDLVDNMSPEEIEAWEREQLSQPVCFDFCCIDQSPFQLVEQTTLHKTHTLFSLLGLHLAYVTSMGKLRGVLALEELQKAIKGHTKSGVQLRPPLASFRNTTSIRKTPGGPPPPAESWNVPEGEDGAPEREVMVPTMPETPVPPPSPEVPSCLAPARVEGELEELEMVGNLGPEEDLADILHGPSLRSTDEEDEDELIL
From the text: (§1) To allow for measurements of electrophysiological properties at the cellular level and for measurements of force, it was necessary to isolate nerve-muscle preparations from the rats. To this end, animals were sacrificed, and muscles were dissected out with 1 to 3 cm of intact nerve. The nerve-muscle preparations were then transferred to the organ baths used for the particular experiments (see below) and perfused with Normal Krebs-Ringer (NKR) solution, consisting of (in mM); 122 NaCl, 25 NaHCO3, 2.8 KCl, 1.2 KH2PO4, 1.2 MgSO4 1.27 CaCl2 and 5 D-glucose. This NKR solution was continuously gassed with a mixture of 95% oxygen and 5% CO2, to maintain a pH of approx. 7.4. In some experiments methyl-sulphate was used to replace Cl^− in the solution. All chemicals used were of analytical grade.

EAMG muscle fibres = experiment: Intracellular action potential measurement during nerve stimulation; assay type: cell-based, rat; settings: 20 μM NMD670; 30 Hz nerve stimulation; EAMG muscle fibres (n=110)
From the text: as §1

EAMG rats = experiment: Grip strength test after single dose of Mestinon and CIC-1 inhibitor alone or in combination; assay type: in vivo, rat
Description: To induce EAMG, 250 μL of emulsion of Complete Freund's Adjuvant, consisting of heat-inactivated Mycobacterium tuberculosis H37Ra in non-metabolizable oils, together with Phosphate-Buffered Saline (PBS) and 80 μg of the extracellular α-domain peptide fragment of the human nicotinic acetylcholine receptor (antigen) was injected subcutaneously in seven-week-old, anaesthetized Lewis rats. The disease-inducing antigen was supplied by the Hellenic Pasteur institute3. The emulsion was deposited at the tail base, left hindleg, and right foreleg. After injection, animals were allowed to recover and returned to their home cage maintained in ventilated racks under controlled temperature (20 to 22° C.) and humidity (˜55%) control, under a 12-h light/12-h dark cycle with food and water provided ad libitum. The animals had pathogen free status and the housing and changing system was designed to assure that the pathogen free status was preserved during the study. The EAMG rats were observed, weighed, and scored for MG symptoms weekly until symptoms of MG developed, whereafter animals were observed daily.
In EAMG animals with severe MG symptoms the effects of CIC-1 inhibitor and Mestinon (pyridostigmine) alone or in combination was assessed. […] The study was blinded to both the experimenter and during subsequent analysis. Animals were subjected to grip strength test before compound administration, as described above and then dosed per oral with either 0.375 mg/kg pyridostigmine bromide (Mestinon) (CAS-no 101-26-8), 20 mg/kg NMD670 or a combination of both pyridostigmine and NMD670. Grip strength was tested 45 minutes post dosing. […] The change in grip strengths was calculated for individual animals relative to the results obtained prior to administration of test article and then averaged.
Grip strength was measured on a BIOSEB BIO-GT3 Grip strength meter (force transducer, S/N 180271). […] Care was taken to ensure that the force recorded reflected the grip strength of the rat and not the force of the pulls conducted by the operator. […]

[1] = test system: muscle fibres from EAMG rats; experiment: Endplate potentials (EPP) in isolated nerve-muscle preparations; assay type: cell-based, rat; settings: 20 μM NMD670
From the text: The effect of CIC-1 inhibition on neuromuscular transmission was investigated at the cellular level by recording endplate potentials (EPPs) with intracellular electrodes in isolated nerve-muscle preparations from healthy and EAMG rats (score 0-2). Muscle preparations used in the experiments were diaphragm or levator longus auris (LAL) providing the advantage to dissect out 1-3 cm of intact motor nerve. After dissection, preparations were immediately mounted in a chamber perfused with NKR at a temperature of 30-31° C., pH 7.4-7.5. […]

C[C@H](Oc1ccc(Br)cc1-c1ccon1)C(=O)O [NMD670, (2S)-2-[4-bromo-2-(1,2-oxazol-3-yl)phenoxy]propanoic acid]
Membrane conductance (Gm) (CIC-1; 20 μM NMD670, rat soleus muscle from healthy (n=20) and EAMG (n=12) animals, before vs after addition): statistically significantly reduced Gm
Membrane conductance (Gm) in bathing solution free of Cl− (CIC-1; increasing concentration of NMD670, Cl−-free solution): did not reduced Gm
Success of repeated action potential excitations (EAMG muscle fibres): improved markedly; also recorded: AP excitation failures were less common
Grip strength after administration (significance vs vehicle) (EAMG rats; 45 minutes after dosing, 20 mg/kg NMD670, or with 0.375 mg/kg Mestinon): significantly increased
Increase in Pulled Force (%) (EAMG rats; per oral, 45 minutes post dosing, 0.375 mg/kg Mestinon, 20 mg/kg NMD670 or both): 15±5% and 14.5 ± 5.1%
Endplate potential (EPP) in muscle fibres from EAMG rats vs healthy rats [1]: could be restored
Increase of endplate potential (EPP) amplitude ([1]; EAMG rats, throughout a 12 Hz train of 30 stimulations, 82 fibres vs 68 fibres without inhibitor): more than 35%
